Results: PMC10421400, “Methoxylated Flavonols and ent-Kaurane Diterpenes from the South African Helichrysum rutilans and Their Cosmetic Potential” (Plants, 2023)
pIC50: −log10 of the molar value. Where “and” joins values, the source holds several entries; their conditions need not be identical. Equal entries are not always repeated. Where two headings read alike, the source gives them in different places.

Tests used:
[1] = test system: Fe2+-induced lipid peroxidation in microsomes from an S9 liver fraction; test: Inhibition of Fe(II)-induced microsomal lipid peroxidation (TBARS); assay type: biochemical; settings: TBARS at 532 nm, Table 2 head prints no unit, IC50 in µg/mL
Experimental: A previously described method was used with a few modifications. The reaction mixture contained microsomes (1 mg of protein/mL in 0.01 M potassium phosphate buffer; pH 7.4, supplemented with 1.15% KCl, m/v) isolated from an S9 liver fraction using a sepharose column. The positive control included microsomes, buffer, and ferrous sulphate, in the absence of the samples to be tested.
The sample stock solutions (HR and C-1–C-7) were prepared in methanol (1 mg/mL, w/v). The working sample solutions were prepared in 0.01M potassium phosphate buffer, pH 7.4, supplemented with 1.15% KCl (m/v) diluted to 26.750, 13.375, 6.688, 3.344, 1.672, and 0.836 µg/mL concentrations. A total of 100 µL of each sample (working solutions) was dissolved in potassium phosphate buffer and pre-incubated with 500 µL microsomes at 37 °C for 30 min in a shaking water bath. A total of 200 µL of KCl buffer was added to the mixture, followed by 200 µL of a 2.5 mM ferrous sulphate solution and incubated at 37 °C for 1 h in a shaking water bath. The reaction was terminated with 10% trichloroacetic acid (TCA, m/v) solution (1 mL) containing 125 µL butylated hydroxytoluene (BHT, 0.01%) and 1 mM ethylenediaminetetraacetic acid (EDTA). Samples were centrifuged at 2000 rpm for 15 min; 1 mL of supernatant was mixed with 1 mL of 0.67% thiobarbituric acid (TBA) solution. The reaction mixture was then incubated in a water bath at 90 °C for 20 min and the absorbance was measured at 532 nm using Multiskan plate reader. EGCG, dissolved in methanol, was used as positive control. The percentage inhibition of TBARS formation relative to the positive control was calculated by Acontrol−Asample/Acontrol×100
(§1) All skin enzyme inhibitory assays and Fe^2+-induced lipid peroxidation assay calculations, expressed as percentage inhibitions ± SD, were performed using MS Excel 2013, while the final values, expressed as IC50, were determined using GraphPad prism 5.0. The data presented are means ± SD obtained from 96-well plate readers for all in vitro experiments in triplicate. Differences between the means were considered to be significant if p < 0.05 according to Prism’s one-way ANOVA. The ORAC, FRAP, and TEAC values were determined using their respective templates. Correlation coefficients among the methods used for determining total antioxidant assays (FRAP, TEAC, and ORAC), as well as skin enzymes inhibitions (tyrosinase anf elastase), were determined using SPSS version 21. Values at p < 0.05 were considered significant.

[2] = Ferric-ion-reducing antioxidant power (FRAP) assay; settings: ascorbic acid equivalents; sample stock 1 mg/mL; read at 593 nm after 30 min
Experimental: Working FRAP reagent was prepared in accordance with the method described previously. In a 96-well clear microplate (visible range), 10 μL of the stock solution (1 mg/mL, w/v) of the isolated compounds (C-1–C-7) and a methanol extract (HR) were mixed each with 300 μL FRAP reagent. The FRAP reagent was a mixture (10:1:1, v/v/v) of acetate buffer (300 mM, pH 3.6), tripyridyl triazine (TPTZ) (10 mM in 40 mM HCl), and FeCl3·6H2O (20 mM). After incubation at room temperature for 30 min, the plate was read at a wavelength of 593 nm on a Multiskan spectrum plate reader. L-Ascorbic acid was used as a standard with concentrations varying between 0 and 1000 μM. Further dilutions were carried out on the samples that were highly concentrated and such dilution factors were recorded and used for the calculations of the affected samples. The results were expressed as μM ascorbic acid equivalents per milligram dry weight (μM AAE/g) of the test samples.

[3] = Automated ORAC assay, hydroxyl radical (H2O2-Cu2+); settings: trolox equivalents; H2O2-Cu2+-generated hydroxyl radical; fluorescein probe
Experimental: (§2) ORAC was carried out according to the previous method with some modifications. […] The analyzer was programmed to record the fluorescence of fluorescein every 2 min after AAPH, or H2O2-Cu^2+ was added. The fluorescein solution and sample were added to the wells of an illuminated 96-well plate, and 12 µL of each of our samples (in stock solution of 1 mg/mL) was combined with 138 µL of a fluorescein working solution followed by the addition of 50 µL of 150 mg of AAPH prepared in situ in 6 mL phosphate buffer. Absorbance was measured using the Fluoroskan spectrum plate reader with the excitation wavelength set at 485 nm and the emission wavelength at 530 nm. A calibration curve was established using a trolox stock solution of concentrations in the range of 83–417 µM (R^2 = 0.9514). The ORAC values were calculated using a regression equation (Y = a + bX + cX^2) between trolox concentration (Y in µM) and the net area under the fluorescence decay curve (X). ORAC values were expressed as micromoles of trolox equivalents (TEs) per milligram of test sample. Samples without a perfect curve were further diluted and the dilution factors were used for the result calculations of such samples.

[4] = Trolox equivalent absorbance capacity (TEAC) assay; settings: trolox equivalents; sample stock 1 mg/mL; read at 734 nm after 30 min
Experimental: The total antioxidant activity of the test sample was measured using previously described methods. The stock solutions which contained 7 mM ABTS and 140 mM potassium-peroxodisulphate (K2S2O8) (Merck, Johannesburg, South Africa) were prepared and kept at −2 °C. The working solution was then prepared by adding 88 μL K2S2O8 solution to 5 mL ABTS solution. The two solutions were thoroughly mixed and allowed to react for 24 h at room temperature in the dark. Trolox (6-hydrox-2,5,7,8-tetramethylchroman-2-carboxylic acid) was used as the standard with concentrations ranging between 0 and 500 μM. After 24 h, the ABTS mix solution was diluted with ethanol to read a start-up absorbance (control) of approximately 2.0 (±0.1). The stock solution (1 mg/mL) of a methanol extract (HT) and purified compounds (25 μL) were allowed to react with 300 μL ABTS in the dark at room temperature for 30 min. The absorbance was read at 734 nm at 25 °C on the plate reader. The results were expressed as μM trolox equivalents per milligram dry weight (μM TE/g) of the test samples.

[5] = Automated ORAC assay, peroxyl radical (AAPH); settings: for ORAC Peroxyl: trolox equivalents, AAPH-generated peroxyl radical, fluorescein probe; for ORAC peroxyl radical: scaled × 10^3
Experimental: as §2

elastase = target: T1, elastase (Sus scrofa, UniProt P00772); test: Elastase inhibition assay; assay type: biochemical, porcine
T1 construct: purchased Sigma-Aldrich CAS No. 39445-21-1 (catalogue number not given); host or cells: porcine pancreas
T1 sequence (P00772 27-266): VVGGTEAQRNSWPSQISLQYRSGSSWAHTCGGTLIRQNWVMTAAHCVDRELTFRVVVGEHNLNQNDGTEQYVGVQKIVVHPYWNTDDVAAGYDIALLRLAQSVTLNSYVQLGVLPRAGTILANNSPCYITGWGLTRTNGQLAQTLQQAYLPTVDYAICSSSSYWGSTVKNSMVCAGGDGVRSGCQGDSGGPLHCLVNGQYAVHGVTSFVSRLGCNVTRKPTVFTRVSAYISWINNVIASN
Experimental: Inhibition of elastase by the test samples was assayed using N-succ-(Ala)3-nitroanilide (SANA) as the substrate, monitoring the release of p-nitroanilide by the method described with little adjustment. The inhibitory activity determined the intensity of color released during cleavage of SANA by the action of elastase. The working reagent for anti-elastase assay was prepared in line with the literature. […] The sample stock solutions were prepared as 1 mg in 1 mL methanol. […] The mixtures were further incubated for 10 min and the absorbance was measured at 410 nm. […] The sample control involved the sample and SANA (uninhibited sample). The percentage of elastase inhibition was calculated as follows: 1−B/A×100
Elastase inhibition (%), where A is the enzyme activity without sample and B is the activity in the presence of the sample.
as §1, with “The” for “All skin enzyme inhibitory assays and Fe^2+-induced lipid peroxidation assay calculations, expressed as percentage inhibitions ± SD, were performed using MS Excel 2013, while the final values, expressed as IC50, were determined using GraphPad prism 5.0. The”

[6] = porcine pancreatic elastase, SANA substrate, 410 nm, Table 3 head prints no unit, threshold 100 µg/mL, read-out: ELA (elastase inhibition)

Row | LPO (IC50, inhibition of Fe2+-induced lipid peroxidation) [1] | pIC50 (elastase; [6]) | SMILES | FRAP [2] | ORAC Hydroxyl [3] | TEAC [4] | ORAC Peroxyl [5] | ORAC peroxyl radical [5] | pIC50 (elastase)
1 | 0.929 ± 4.11 µg/mL | – | O=C(O[C@@H]1Cc2c(O)cc(O)cc2O[C@@H]1c1cc(O)c(O)c(O)c1)c1cc(O)c(O)c(O)c1 [EGCG, Epigallocatechin gallate, reference compound] | 3326.45 ± 5.76 µM AAE/g | 3.862 ± 4.65 × 10^6 µM TE/g | 11545.44 ± 17.28 µM TE/g | 14693.09 ± 5.53 µM TE/g | – | –
2 | >100 µg/mL | < 3.50 | C=C1C2CCC3C4(C)CCCC(C)(C(=O)O)C4CCC3(C2)C1O (stereo not drawn) [Compound C-7, 15-α-hydroxy-(-)-ent-kaur-16-en-19-oic acid] | 60.90 ± 7.90 µM AAE/g | 0.845 ± 13.34 × 10^6 µM TE/g | 1424.51 ± 0.70 µM TE/g | 93.10 ± 13.68 µM TE/g | – | –
3 | >100 µg/mL | < 3.48 | C=C1CC23CCC4C(C)(C(=O)O)CCCC4(C)C2CCC1C3 (stereo not drawn) [Compound C-5, ent-kaurenoic acid] | 19.66 ± 8.12 µM AAE/g | 0.429 ± 12.00 × 10^6 µM TE/g | 1105.00 ± 3.09 µM TE/g | 364.44 ± 6.71 µM TE/g | – | –
4 | 13.123 ± 0.34 µg/mL | < 3.62 | C/C=C(\C)C(=O)Oc1c(O)c(OC)c(O)c2c(=O)c(OC)c(-c3ccccc3)oc12 [Compound C-1, 5,7,8-trihydroxy-3,6-dimethoxyflavone-8-O-2-methyl-2-butanoate] | 1251.45 ± 4.18 µM AAE/g | 2.114 ± 4.01 × 10^6 µM TE/g | 1131.80 ± 6.41 µM TE/g | 3523.51 ± 3.22 µM TE/g | – | –
5 | 14.90 ± 0.06 µg/mL | < 3.52 | COc1cc2oc(-c3ccccc3)c(OC)c(=O)c2c(O)c1OC [Compound C-4, 5-hydroxy-3,6,7-trimethoxyflavone] | 1119.44 ± 11.89 µM AAE/g | 1.917 ± 3.91 × 10^6 µM TE/g | 1207.11 ± 7.21 µM TE/g | 2814.51 ± 5.20 µM TE/g | 2.814 ± 5.20 × 10^3 µMTE/g | –
6 | – | – | O=c1cc(CO)occ1O [KJA, kojic acid, reference compound] | – | – | – | – | – | < 3.15
7 | 11.64 ± 1.72 µg/mL | < 3.55 | COc1c(OC)c(O)c2c(=O)c(OC)c(-c3ccccc3)oc2c1OC [Compound C-3, 5-hydroxy-3,6,7,8-tetramethoxyflavone] | 1314.42 ± 2.42 µM AAE/g | – | 1378.10 ± 9.06 µM TE/g | 2431.30 ± 8.63 µM TE/g | 2.431 ± 8.63 × 10^3 µMTE/g | –

Row | SMILES | LPO (IC50, inhibition of Fe2+-induced lipid peroxidation) [1] | pIC50 (elastase; [6]) | FRAP [2] | ORAC Hydroxyl [3] | TEAC [4] | ORAC Peroxyl [5] | ORAC peroxyl radical [5] | pIC50 (elastase)
8 | COc1c(O)c(OC)c2oc(-c3ccccc3)c(OC)c(=O)c2c1O [Compound C-2, 5,7-dihydroxy-3,6,8-trimethoxyflavone] | 16.421 ± 0.92 µg/mL and 16.42 ± 0.92 µg/mL | < 3.54 | 1402.62 ± 5.77 µM AAE/g | 2.413 ± 6.20 × 10^6 µM TE/g | 1276.11 ± 1.32 µM TE/g | 2935.47 ± 0.13 µM TE/g | 2.935 ± 0.13 × 10^3 µMTE/g | –
